According to US9096832B2, “Differentiation of human embryonic stem cells” (LifeScan, Inc., priority 2007, dated 2015):

Assays:
[1] = system: human embryonic stem cell line H7; assay: FACS of protein markers after activin A treatment (Table IIB); assay type: cell-based
Text: (§1) The level of expression of definitive endoderm markers was examined by PCR (FIG. 1), FACS (results summarized in Table II), and immunohistochemistry (FIG. 2).
(§2) CXCR4 positive cells were also highly positive for C-kit, EPCAM, CD99, and negative for CD9. The expression pattern for these markers was consistent among all three hES cell lines examined (Table IIB for H7 and Table IIC for H1). […] In parallel, almost 100% of the differentiated cells were […] (FIG. 2).
(§3) Adhered cells were removed from culture plates by five-minute incubation with TrypLE™ Express solution (Invitrogen, CA). Released cells were resuspended in human embryonic stem cell culture medium and recovered by centrifugation, followed by washing and resuspending the cells in a staining buffer consisting of 2% BSA, 0.05% sodium azide in PBS (Sigma, MO). As appropriate, the cells were Fc-receptor blocked for 15 minutes using a 0.1% γ-globulin (Sigma) solution. […] Controls included appropriate isotype matched antibodies, unstained cells, and cells stained only with secondary conjugated antibody. All incubations with antibodies were performed for 30 mins at 4° C. after which the cells were washed with the staining buffer. Samples that were stained with unconjugated primary antibodies were incubated for an additional 30 mins at 4° C. with secondary conjugated PE or —APC labeled antibodies. See Table I for a list of secondary antibodies used. Washed cells were pelleted and resuspended in the staining buffer, and the cell surface molecules were identified using a FACS Array (BD Biosciences) instrument, collecting at least 10,000 events.

[2] = system: human embryonic stem cell line H1; assay: FACS of protein markers after activin A treatment (Table IIC); assay type: cell-based; details: 5-day AA treatment
Text: as §1, §2, §3

[3] = system: human embryonic stem cell line H9; assay: Immunocytochemistry of definitive endoderm markers after activin A treatment; assay type: cell-based; details: activin A for five days
Text: as §1
Levels of expression for HNF-3beta, Sox-17, and GATA4 were low in untreated cells, approximately 10 to 20% of all cells.

[4] = system: human embryonic stem cell line H9; assay: Formation of pancreatic endocrine cells with gamma-secretase inhibitor L-685,458 (PCR); assay type: cell-based; details: activin A alone or in combination with retinoic acid and FGFs
Protocol: After this time interval, the cells were then treated for six days with combinations of retinoic acid and FGF as outlined in Example 2, then the culture medium was removed and replaced with medium comprising DMEM/F12 with 2% FBS, containing the γ-secretase inhibitors L-685,458 at 10 μM for three days.
Final data were expressed relative to a calibrator sample.

[5] = system: human embryonic stem cell line H9; assay: Formation of pancreatic endocrine cells expressing Nkx2.2 (PCR); assay type: cell-based
Protocol: Cells were continuously cultured for another 3 to 5 days in basal medium with retinoic acid at 1 μM, alone or with bFGF. RNA samples were harvested from cells at various time points along this process to help evaluate the directed differentiation of the cells. Furthermore, culture medium and factors were regularly removed and replenished throughout the differentiation protocol.

[6] = system: human embryonic stem cell line H9; assay: CXCR4 expression by FACS, Activin A +/- Wnt3a, Example 34; assay type: cell-based; details: end of the 5th day, H9 passage 54
Protocol: The effect that Wnt-3a treatment has on cytokine expression was analyzed using a protein array. Cells of the human embryonic stem cell line H9 were cultured according to the methods described in Example 15. At passage 54, cells were differentiated in the presence of 100 ng/mlActivinA+/−10 ng/mlWnt3a for 2 days in 0.5% FBS DMEM/F12.
At the end of the 5th day, CXCR4 expression was determined by FACS for each treatment group.

[7] = system: H9P46-P48 embryonic stem cells; assay: Definitive endoderm on […]: effect of GSK-3B inhibitor IX (FACS CXCR4, PCR); assay type: cell-based, human; details: 20 ng/ml Wnt-3a or 100-1000 nM GSK-3B inhibitor, day 5
Protocol: In order to confirm that the effect of Wnt-3a was through the Wnt pathway, a GSK-3 inhibitor was used to activate the downstream targets of Wnt, such as beta catenin. […] FIG. 29, panel a depicts the expression of CXCR4 by FACS at day 5 in the absence of Wnt-3a or GSK-3B inhibitor, b) +20 ng/ml Wnt-3a, c) +1000 nM GSK-3B inhibitor IX, d) +500 nM GSK-3B inhibitor IX, e) +100 nM GSK-3B inhibitor IX, f) +10 nM GSK-3B inhibitor IX, g) +100 nM GSK-3B inhibitor IX for days 1-2, and h) +10 nM GSK-3B inhibitor IX for days 1-2.

H9 cells = assay: Immunofluorescence staining of DE markers, activin A +/- Wnt-3a; assay type: cell-based, human
Text: Day 5 DE cultures of H9 cells were stained according to Example 10 for SOX-17, HNF-3B, GATA-4, N-cadherin, and E-cadherin. All nuclei were counter stained with DAPI.

SA002 P38 cells = assay: Differentiation of SA002 ES line on […] to definitive endoderm (real-time PCR, FACS); assay type: cell-based, human; details: 20 ng/ml Wnt-3a with 100 ng/ml activin A
Text: Expression of CXCR4 is depicted in FIG. 45: a) AA treatment b) AA+Wnt-3a c) AA+GSK-3B inhibitor.

[8] = system: human embryonic stem cell line H1 at passage 55; assay: Definitive endoderm on human serum coated plates (real-time PCR); assay type: cell-based; details: with activin A, vs activin A only
Protocol: Cultures of the human embryonic stem cell line H1 at passage 55 were grown and differentiated on human serum (Sigma, #H1388, MO) coated plates. 0.5 ml of human serum was added to each well of 6 well tissue culture treated dish, incubated for 1 hr at room temperature, and aspirated before adding human embryonic stem cells. […] These findings parallel our findings for human embryonic stem cells cultured on […]™ or human fibronectin coated plates.

Substance: Activin A: activin A (a member of the TGFβ superfamily), R&D Systems; 'w/o wnt' in Table VII = 100 ng/ml Activin A without Wnt3a
- CXCR4+ ([1]; 1-day AA 100 ng/ml): 6%
- CXCR4+ C-Kit+ ([1]; 1-day AA 100 ng/ml): 2.97%
- CXCR4+ CD9+ ([1]; 1-day AA 100 ng/ml): 8.13%
- CXCR4+ EPCAM+ ([1]; 1-day AA 100 ng/ml): 14.58%
- CXCR4+ ([1]; 3-day AA 100 ng/ml): 38%
- CXCR4+ C-Kit+ ([1]; 3-day AA 100 ng/ml): 31.56%
- CXCR4+ CD9+ ([1]; 3-day AA 100 ng/ml): 24.11%
- CXCR4+ EPCAM+ ([1]; 3-day AA 100 ng/ml): 36.67%
- CXCR4+ ([1]; 5-day AA 100 ng/ml): 65.5%
- CXCR4+ C-Kit+ ([1]; 5-day AA 100 ng/ml): 55.21%
- CXCR4+ CD9+ ([1]; 5-day AA 100 ng/ml): 2.1%
- CXCR4+ EPCAM+ ([1]; 5-day AA 100 ng/ml): 54.5%
- CXCR4+ [2]: 92.78%
- CXCR4+/C-kit+ [2]: 92.90%
- CXCR4+/CD9+ [2]: 7.03%
- CXCR4+/CD99+ [2]: 88.78%
- CXCR4+/EPCAM [2]: 87.99%
- cells positive for Sox17 and HNF-3beta (immunocytochemistry) [3]: 30-40%
- differentiated cells still Oct4 positive (immunocytochemistry) [3]: ~100%
- expression of Ngn3 or insulin [4]: did not induce
- increase of Nkx2.2 expression compared to samples without activin A ([5]; 50 ng/ml activin A with 50 ng/ml basic FGF and 1 μM Retinoic Acid): about 35 fold
- Pdx1 expression ([5]; activin A for the first three days of culture): maintained Pdx1 expression at a level similar to samples containing no activin A
- cells expressing CXCR4 (FACS) [6]: 1%

Substance: Wnt-3a
- number of CXCR4 positive cells [7]: significantly increased
- nuclei stained positive for SOX-17, HNF-3beta, and GATA-4 (H9 cells; 20 ng/ml Wnt-3a, Day 5 DE cultures): significantly larger number
- expression of N-cadherin (H9 cells; addition of Wnt-3a): enhanced expression
- expression of e-cadherin (H9 cells; addition of Wnt-3a): significant loss of expression
- expression of DE markers in SA002 line (SA002 P38 cells): required addition of Wnt-3A for robust expression
- expression of definitive endoderm markers [8]: Robust expression
